Data from PubChem BioAssay AID256 (DTP/NCI, 2004).
Toxic doses and inconclusive results are not listed. How the source made its calls: active means survival T/C of 150% or more; inactive means T/C below 125% in these data.

Test system: CD2F1 mice, L1210 leukemia ip, survival T/C
Experiment: NCI In Vivo Anticancer Drug Screen. Data for tumor model L1210 Leukemia (intraperitoneal) in CD2F1 (CDF1) mice
Settings: endpoint: mean survival time, vehicle: saline with Tween-80, higher = longer survival
Method in brief: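 Vehicle-treated tumor-bearing mice served as controls (C) for compound-treated mice (T). Reported figure is T divided by C.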

Measured: T/C

O=Nc1c(O)sc2ccccc12
inactive: dose: 100.0 mg/kg/injection, schedule: Q01DX001 (ip) 110 % of control | dose: 100.0 mg/kg/injection, schedule: Q01DX009 (ip) 97 % of control | dose: 200.0 mg/kg/injection, schedule: Q01DX001 (ip) 105 % of control | dose: 200.0 mg/kg/injection, schedule: Q01DX009 (ip) 100 % of control | dose: 400.0 mg/kg/injection, schedule: Q01DX001 (ip) 95 % of control | dose: 400.0 mg/kg/injection, schedule: Q01DX009 (ip) 94 % of control
